From ChEMBL document CHEMBL1926642, “Relevance of the C-5 position to schweinfurthin induced cytotoxicity” (2011)

Legend:
Assay type in all cases: functional
[1] = system: COLO 205; assay: Growth inhibition of human COLO205 cells after 48 hrs by sulforhodamine B assay; settings: COLO 205, 48 h; for TGI: read-out: pTGI (converted)
[2] = system: KM12; assay: Growth inhibition of human KM12 cells after 48 hrs by sulforhodamine B assay; settings: KM12, 48 h; for TGI: read-out: pTGI (converted)
[3] = system: UACC-257; assay: Growth inhibition of human UACC257 cells after 48 hrs by sulforhodamine B assay; settings: UACC-257, 48 h; for TGI: read-out: pTGI (converted)
[4] = system: DU-145; assay: Growth inhibition of human DU145 cells after 48 hrs by sulforhodamine B assay; settings: DU-145, 48 h; for TGI: read-out: pTGI (converted)
[5] = system: EKVX; assay: Growth inhibition of human EKVX cells after 48 hrs by sulforhodamine B assay; settings: for TGI: read-out: pTGI (converted)
[6] = system: SR; assay: Growth inhibition of human SR cells after 48 hrs by sulforhodamine B assay
[7] = system: U-251; assay: Growth inhibition of human U251 cells after 48 hrs by sulforhodamine B assay; settings: U-251, 48 h; for TGI: read-out: pTGI (converted)
[8] = system: K562; assay: Growth inhibition of human K562 cells after 48 hrs by sulforhodamine B assay; settings: K562, 48 h; for TGI: read-out: pTGI (converted)
[9] = system: TK-10; assay: Growth inhibition of human TK10 cells after 48 hrs by sulforhodamine B assay; settings: TK-10, 48 h; for TGI: read-out: pTGI (converted)
[10] = system: SNB-75; assay: Growth inhibition of human SNB75 cells after 48 hrs by sulforhodamine B assay; settings: SNB-75, 48 h; for TGI: read-out: pTGI (converted)
[11] = system: OVCAR-8; assay: Growth inhibition of human OVCAR8 cells after 48 hrs by sulforhodamine B assay; settings: OVCAR-8, 48 h; for TGI: read-out: pTGI (converted)
[12] = system: 786-0; assay: Growth inhibition of human 786-0 cells after 48 hrs by sulforhodamine B assay; settings: 786-0, 48 h; for CC50: read-out: pLC50 (the source's name) (converted); for TGI: read-out: pTGI (converted)
[13] = system: A549; assay: Growth inhibition of human A549 cells after 48 hrs by sulforhodamine B assay; settings: A549, 48 h; for TGI: read-out: pTGI (converted)
[14] = system: HOP-62; assay: Growth inhibition of human HOP62 cells after 48 hrs by sulforhodamine B assay; settings: HOP-62, 48 h; for TGI: read-out: pTGI (converted)
[15] = system: HT-29; assay: Growth inhibition of human HT-29 cells after 48 hrs by sulforhodamine B assay; settings: HT-29, 48 h; for TGI: read-out: pTGI (converted)
[16] = system: MDA-MB-435; assay: Growth inhibition of human MDA-MB-435 cells after 48 hrs by sulforhodamine B assay; settings: MDA-MB-435, 48 h; for TGI: read-out: pTGI (converted)
[17] = system: IGROV-1; assay: Growth inhibition of human IGROV1 cells after 48 hrs by sulforhodamine B assay; settings: IGROV-1, 48 h; for TGI: read-out: pTGI (converted)
[18] = system: SK-MEL-5; assay: Growth inhibition of human SK-MEL-5 cells after 48 hrs by sulforhodamine B assay; settings: SK-MEL-5, 48 h; for TGI: read-out: pTGI (converted)
[19] = system: CAKI-1; assay: Growth inhibition of human Caki1 cells after 48 hrs by sulforhodamine B assay; settings: CAKI-1, 48 h; for TGI: read-out: pTGI (converted)
[20] = system: PC-3; assay: Growth inhibition of human PC3 cells after 48 hrs by sulforhodamine B assay; settings: PC-3, 48 h; for CC50: read-out: pLC50 (the source's name) (converted); for TGI: read-out: pTGI (converted)
[21] = system: UO-31; assay: Growth inhibition of human UO31 cells after 48 hrs by sulforhodamine B assay; settings: UO-31, 48 h; for TGI: read-out: pTGI (converted)
[22] = system: SW-620; assay: Growth inhibition of human SW620 cells after 48 hrs by sulforhodamine B assay; settings: SW-620, 48 h; for TGI: read-out: pTGI (converted)
[23] = system: NCI-H460; assay: Growth inhibition of human NCI-H460 cells after 48 hrs by sulforhodamine B assay; settings: NCI-H460, 48 h; for TGI: read-out: pTGI (converted)
[24] = system: BT-549; assay: Growth inhibition of human BT549 cells after 48 hrs by sulforhodamine B assay; settings: BT-549, 48 h; for TGI: read-out: pTGI (converted)
[25] = system: MCF7; assay: Growth inhibition of human MCF7 cells after 48 hrs by sulforhodamine B assay; settings: MCF7, 48 h
[26] = system: SF-295; assay: Growth inhibition of human SF295 cells after 48 hrs by sulforhodamine B assay; settings: SF-295, 48 h; for TGI: read-out: pTGI (converted)
[27] = system: M14; assay: Growth inhibition of human M14 cells after 48 hrs by sulforhodamine B assay; settings: M14, 48 h
[28] = system: HOP-92; assay: Growth inhibition of human HOP92 cells after 48 hrs by sulforhodamine B assay; settings: HOP-92, 48 h

COc1cc(/C=C/c2cc3c(c(OC)c2)O[C@]2(C)CC[C@@H](O)C(C)(C)[C@H]2C3)cc(O)c1C/C=C(\C)CCC=C(C)C
GI50 [1]: 0.562 µM
LC50 [1]: 2.4 µM
TGI [1]: 1.17 µM
GI50 [2]: 1.35 µM
LC50 [2]: 18.6 µM
TGI [2]: 6.03 µM
GI50 [3]: 6.76 µM
LC50 [3]: 29.5 µM
TGI [3]: 14.1 µM
GI50 [4]: 3.8 µM
LC50 [4]: 22.9 µM
TGI [4]: 10.2 µM
GI50 [5]: 2.09 µM
LC50 (50% lethal concentration) [5]: 32.4 µM
TGI [5]: 10.7 µM
GI50 [6]: 1.02 µM
LC50 [6]: 22.4 µM
TGI ([6]; read-out: pTGI (converted)): 3.16 µM
GI50 [7]: 0.417 µM
LC50 [7]: 19.5 µM
TGI [7]: 7.76 µM
GI50 [8]: 1.2 µM
LC50 [8]: 22.9 µM
TGI [8]: 4.07 µM
GI50 [9]: 7.08 µM
LC50 [9]: 32.4 µM
TGI [9]: 15.1 µM
GI50 [10]: 3.63 µM
LC50 [10]: 30.2 µM
TGI [10]: 11.7 µM
GI50 [11]: 5.5 µM
LC50 [11]: 30.9 µM
TGI [11]: 13.2 µM
GI50 [12]: 0.123 µM
CC50 [12]: 4.17 µM
TGI [12]: 0.363 µM
LC50 [13]: 28.2 µM
GI50 ([13]; read-out: GI50): 2.45 µM
GI50 ([13]; read-out: pGI50 (converted)): 2.45 µM
TGI [13]: 10.5 µM
GI50 [14]: 0.832 µM
LC50 [14]: 11 µM
TGI [14]: 2.82 µM
GI50 [15]: 0.398 µM
LC50 (concentration killing 50% of cells) [15]: 13.2 µM
TGI [15]: 2.63 µM
GI50 [16]: 4.27 µM
LC50 [16]: 28.8 µM
TGI [16]: 11.7 µM
GI50 [17]: 5.75 µM
LC50 [17]: 30.9 µM
TGI [17]: 13.5 µM
GI50 [18]: 0.955 µM
LC50 [18]: 6.92 µM
TGI [18]: 2.34 µM
GI50 [19]: 1.12 µM
LC50 [19]: > 50.1 µM
TGI [19]: 6.61 µM
GI50 [20]: 0.741 µM
CC50 [20]: 37.2 µM
TGI [20]: 10 µM
GI50 [21]: 1.12 µM
LC50 [21]: 21.9 µM
TGI [21]: 7.59 µM
GI50 [22]: 1.23 µM
LC50 [22]: 14.1 µM
TGI [22]: 3.98 µM
GI50 [23]: 1.32 µM
LC50 (concentration killing 50% of cells) [23]: 16.2 µM
TGI [23]: 5.25 µM
GI50 [24]: 1.05 µM
LC50 [24]: 25.1 µM
TGI [24]: 9.12 µM
GI50 [25]: 1.02 µM
LC50 [25]: 17.4 µM
TGI ([25]; read-out: pTGI (converted)): 5.89 µM
LC50 [26]: 3.89 µM
GI50 ([26]; read-out: GI50): 0.19 µM
GI50 ([26]; read-out: pGI50 (converted)): 0.186 µM
TGI [26]: 0.871 µM

COCOc1cc(/C=C/c2cc(CO)c3c(c2)C[C@@H]2C(C)(C)[C@H](O)CC[C@@]2(C)O3)cc(OC)c1C/C=C(\C)CCC=C(C)C
GI50 [1]: 3.55 µM
LC50 [1]: 66.1 µM
TGI [1]: 14.1 µM
GI50 [27]: 0.692 µM
LC50 [27]: > 100 µM
TGI ([27]; read-out: pTGI (converted)): 21.9 µM
GI50 [2]: 4.27 µM
LC50 [2]: 57.5 µM
TGI [2]: 21.4 µM
GI50 [3]: 3.47 µM
LC50 [3]: > 100 µM
TGI [3]: 39.8 µM
GI50 [4]: 3.8 µM
LC50 [4]: 52.5 µM
TGI [4]: 20 µM
GI50 [5]: 4.47 µM
LC50 (50% lethal concentration) [5]: > 100 µM
TGI [5]: 83.2 µM
GI50 [7]: 0.275 µM
LC50 [7]: 53.7 µM
TGI [7]: 15.5 µM
GI50 [8]: 2.51 µM
LC50 [8]: > 100 µM
TGI [8]: 28.8 µM
GI50 [28]: 2.57 µM
LC50 [28]: 45.7 µM
TGI ([28]; read-out: pTGI (converted)): 16.6 µM
GI50 [9]: 15.8 µM
LC50 [9]: > 100 µM
TGI [9]: 41.7 µM
GI50 [10]: 0.263 µM
LC50 [10]: > 100 µM
TGI [10]: 14.8 µM
GI50 [11]: 11 µM
LC50 [11]: 77.6 µM
TGI [11]: 29.5 µM
GI50 [12]: 0.158 µM
CC50 [12]: 8.32 µM
TGI [12]: 0.912 µM
LC50 [13]: > 100 µM
GI50 ([13]; read-out: GI50): 1.41 µM
GI50 ([13]; read-out: pGI50 (converted)): 0.977 µM
TGI [13]: 26.9 µM
GI50 [14]: 0.537 µM
LC50 [14]: 64.6 µM
TGI [14]: 11 µM
GI50 [15]: 2.04 µM
LC50 (concentration killing 50% of cells) [15]: > 100 µM
TGI [15]: 19.1 µM
GI50 [16]: 1.38 µM
LC50 [16]: > 100 µM
TGI [16]: 56.2 µM
GI50 [17]: 15.8 µM
LC50 [17]: > 100 µM
TGI [17]: > 100 µM
GI50 [18]: 2.24 µM
LC50 [18]: 40.7 µM
TGI [18]: 12.3 µM
GI50 [19]: 0.813 µM
LC50 [19]: > 100 µM
TGI [19]: 15.1 µM
GI50 [20]: 0.912 µM
CC50 [20]: > 100 µM
TGI [20]: > 100 µM
GI50 [21]: 0.501 µM
LC50 [21]: 93.3 µM
TGI [21]: 15.1 µM
GI50 [22]: 1.95 µM
LC50 [22]: 67.6 µM
TGI [22]: 13.5 µM
GI50 [23]: 0.871 µM
LC50 (concentration killing 50% of cells) [23]: > 100 µM
TGI [23]: > 100 µM
GI50 [24]: 1.38 µM
LC50 [24]: 50.1 µM
TGI [24]: 17.8 µM
LC50 [26]: 33.9 µM
GI50 ([26]; read-out: GI50): 0.15 µM
GI50 ([26]; read-out: pGI50 (converted)): 0.151 µM
TGI [26]: 0.501 µM
